Results published in patent publication US7442798B2, “Autoinducer molecules and uses therefor” (priority 2000, dated 2008).
“Also recorded” adds a separate entry of the source.

Experiments:
lasB′-lacZ fusion [1] = details: strain PAO-R1 (lasR) (pTS400); cited from earlier work
lasB′-lacZ fusion [2] = assay: PQS bioassay: activation of lasB′-lacZ fusion in P. aeruginosa strain PAO-R1 (lasR−) (pTS400), β-galactosidase assay; type: cell-based, Pseudomonas aeruginosa
Procedure: To monitor PQS bioactivity, 1-ml cultures of P. aeruginosa strain PAO-R1 (pTS400) were grown for 18 h at 37° C. with shaking (260 rpm; initial optical density was 0.02 at 660 nm) in the presence of culture extract or synthetic PQS. This was followed by measuring activation of the lasB′-lacZ fusion with the use of β-galactosidase (β-gal) assays as described by Miller (19). For culture extracts, bacterial culture fluid was extracted with ethyl acetate and was prepared as described (3). Extracts that were resuspended in ethyl acetate were added to bioassay tubes, and ethyl acetate was removed by drying under a stream of nitrogen. Unless otherwise specified, the amount of material assayed was extracted from 10 ml of culture fluid.

RhlR = assay: E. coli bioassay: strain DH5a (pECP62.5) with lasB′-lacZ reporter and inducible tacp-rhlR; type: cell-based, Escherichia coli; details: E. coli strain DH5a (pECP62.5), tacp-rhlR induced
Procedure: Using this information, an experiment was conducted to define the requirements for signal activity by developing an E. coli bioassay for the signal. E. coli strain DH5a was transformed with plasmid pECP62.5, which contained the lasB′-lacZ reporter and the inducible tacp-rhlR gene. If the signal worked directly through RhlR, then the induction of tacp-rhlR in the presence of exogenously added signal should result in the activation of lasB′-lacZ in E. coli strain DH5a (pECP62.5).

lasB′-lacZ = lasB′-lacZ bioassay in lasR, rhlR double mutant strain PAO-JP3 (pTS400); type: cell-based, Pseudomonas aeruginosa
Procedure: This molecule was determined to have a 4-quinolone base structure and therefore has been designated as the Pseudomonas quinolone signal (PQS). Furthermore, exogenously added PQS induced a lasB′-lacZ fusion in the P. aeruginosa lasR mutant, strain PAO-R1, containing the plasmid pTS400. […] Despite the ability of PQS to activate lasB′-lacZ in the absence of lasR, the production of PQS required an active LasR protein. […] It was also determined that at least RhlR was required for PQS to act as a signal because lasB′-lacZ was not induced by PQS in the lasR, rhlR double mutant, strain PAO-JP3, containing the plasmid pTS400.

E. coli = assay: anti-E. coli activity; type: cell-based
Staphylococcus aureus = assay: anti-Staphylococcus aureus activity; type: cell-based

SMILES | response of lasB′-lacZ fusion to exogenously added autoinducer (in words) (lasB′-lacZ fusion [1]) | induction of lasB′-lacZ / activity in the PQS bioassay (in words) (lasB′-lacZ fusion [2]; strain PAO-R1 (lasR−) (pTS400)) | further results
CCCC(=O)N[C@H]1CCOC1=O [C4-HSL, N-butanoyl-L-homoserine lactone, reference compound] | mildly activated | could not be mimicked | 
CCCCCCCC1C(=O)c2ccccc2N=C1O (stereo not shown) [2-hydroxy-3-heptyl-4-quinolone, reference compound] |  | not active | 
CCCCCCCc1[nH]c2ccccc2c(=O)c1O [PQS, 2-heptyl-3-hydroxy-4-quinolone] |  | active; also recorded: dose-dependent induction | PQS response, lasB′-lacZ, in recombinant E. coli expressing RhlR (in words) (RhlR): not replicated; induction of lasB′-lacZ (in words) (lasB′-lacZ): not induced; anti-E. coli activity (E. coli): does not have detectable; anti-Staphylococcus aureus activity (Staphylococcus aureus): does not have detectable; activation of the lasB promoter (β-gal activity) (lasB′-lacZ fusion [2]; 5 mM synthetic PQS, strain PAO-R1 (lasR−) (pTS400), FIG. 6): 148 Miller units; EC50 (lasB′-lacZ fusion [2]; Pseudomonas aeruginosa, read-out: amount required to activate the bioassay to half of its maximum activity): ~30 µM
CCCCCCCc1cc(O)c2ccccc2[n+]1[O-] [2-heptyl-4-hydroxy-quinoline-N-oxide, reference compound] |  | not active | 
CCCCCCCCCC(=O)CC(=O)N[C@H]1CCOC1=O [3-oxo-C12-HSL, N-3-(oxododecanoyl)-L-homoserine lactone, reference compound] | unresponsive | could not be mimicked | 
